Source: patent US9505798B2, “Steroid compounds as RORyt modulators and uses thereof” (New York University, priority 2010, dated 2016)

How the values were obtained:
mouse RORγt = molecular target: T1, mouse RORγt (Mus musculus, UniProt P51450); assay: Drosophila S2 cell RORγt luciferase reporter; assay type: cell-based; details: for effect on RORγ transcriptional activity: S2 reporter system
T1 construct: mouse RORγt (amino acids 79 to the carboxyl terminal end); expressed in transfected cells
T1 sequence (P51450 79-495 isoform P51450-2): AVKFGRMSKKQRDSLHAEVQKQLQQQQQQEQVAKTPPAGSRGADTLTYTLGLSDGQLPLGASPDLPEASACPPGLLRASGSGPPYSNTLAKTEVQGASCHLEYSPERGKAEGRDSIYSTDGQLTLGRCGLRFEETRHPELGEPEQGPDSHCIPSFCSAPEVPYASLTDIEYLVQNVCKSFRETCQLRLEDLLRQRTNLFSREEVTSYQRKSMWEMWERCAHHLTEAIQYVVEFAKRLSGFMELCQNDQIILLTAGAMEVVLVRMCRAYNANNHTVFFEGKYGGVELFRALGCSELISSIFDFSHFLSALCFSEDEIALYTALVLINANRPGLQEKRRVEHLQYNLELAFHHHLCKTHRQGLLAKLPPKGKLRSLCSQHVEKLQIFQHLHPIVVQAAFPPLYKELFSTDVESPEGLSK
From the text: The Drosophila S2 cell line was originally purchased from Invitrogen and was maintained in Schneider's medium supplemented with 10% heat-inactivated bovine fetal calf serum and antibiotics (Invitrogen). […] The resulting chimeric gene was subcloned into the copper inducible pMT/V5-His A vector (Invitrogen). […] Coding sequences for firefly luciferase (Promega) were PCR amplified and subcloned into pUAST vector containing Gal4 binding enhancer sequences. Renilla luciferase construct under the polIII promoter was obtained from Dr. Dasgupta's laboratory (NYU medical center). In order to generate stable cell lines, cells were co-transfected with pMT-G4 DBD-RORγt, pMT-G4 DBD-RORα, pMT-G4 DBD-DHR3, or pMT-G4 DBDVP16 and pHygro plasmids (Invitrogen) and screened for resistant colonies in the presence of hygromycin (0.3 mg/mL). […] Using similar methods, stable clones with genomic integration of the luciferase reporters and other reporters were generated such as pMT-RORα_luc, pMT-DHR3_Luc, or pMT-VP16_luc.
(§1) The following representative compounds are tested for their RORγt inhibitory activity and toxicity.
Promega Dual-Glo system is widely used for HTS as the luciferase substrates. Cell culture medium was reduced to the final volume of 10 μl or less and 10 μl of Dual-glo and 10 μl of Stop-glo luciferase substrates were added in a sequencial manner (Promega). Firefly and Renilla luciferase activity was determined by measuring luminescence signals using an automated 384-well plate reader equipped with multiple stack units (such as the Analyst GT or Envision plate readers).
10,000 Drosophila stable S2 cells with genomic integration of the Cu2+-inducible G4 DBD-mouse RORγ construct were transfected with 5 ng of pUASTfirefly luciferase and 7 ng of Pol III-Renilla luciferase and dispensed into white bottom-tissue culture 384-well plates (Corning). […] The following morning, Stop-glo luciferase substrates (Promega) were used to measure luciferase activity.
The Drosophila S2 cell line was originally purchased from Invitrogen and was maintained in Schneider's Drosophila medium supplemented with 10% heat-inactivated bovine fetal calf serum and 1× antibiotic-antimycotic solution (Invitrogen). […] The resulting chimeric gene was subcloned into the copper inducible pMT/V5-His A vector (Invitrogen) and into the constitutive pAc vector. […] Coding sequences for firefly luciferase (Promega) were PCR amplified and subcloned into the pUAST vector containing five Gal4 binding enhancer sequences. The Renilla luciferase construct under a pol III promoter and the pAc vector were obtained from R. Dasgupta (NYU School of Medicine). To generate cell lines stably expressing various chimeric proteins upon copper addition, S2 cells were co-transfected with pMT plasmids encoding individual G4 DBD chimeric constructs and the pCoHygro plasmid (Invitrogen), before screening for resistant colonies in the presence of hygromycin (0.3 mg/mL). […] The human androgen receptor (hAR) expression plasmid pMK33-hAR and its reporter TAT3-Luc were obtained from M. Garabedian (NYU School of Medicine). […] R1881 (10 nM) and Dafachronic acid (10 μM) were used as ligands for hAR and Daf12. Upon treatment of cells with copper, in 384 well plates, there was specific increase in firefly luciferase activity versus normalized Renilla luciferase activity for all cell lines described above, validating the method for high-throughput screen.
Transfections of firefly and Renilla reporter constructs were performed using the Effectene kit from Qiagen according to the manufacturer's protocol with some modifications.

[1] = tested on: human embryonic kidney 293t cell lines; assay: Toxicity on human embryonic kidney 293T cells
Method: as §1

Na+/K+-ATPase = details: compared with digoxin; cited from earlier work
[2] = tested on: human Th17 cell differentiation; assay: Human Th17 cell differentiation from naive cord blood CD4+ T cells; assay type: cell-based
Method: (§2) GFP expressing cells were gated for analysis. DMSO, Dig(dhd) (40 μM) or Dig(sal) (10 μM) was added 6-8 h after viral transduction. c, Flow cytometry of the production of IL-17a and IFN-γ by human naive cord blood T cells cultured for six days in the presence of IL-2, IL-23, and IL-1β, with various concentrations of TGF-β. DMSO, Dig(dhd), or Dig(sal) at indicated concentrations (μM) was added 16 h after cytokine addition.
(§3) Blood samples were obtained from the New York Blood Center. Mononuclear cells were prepared from buffy coats from healthy adult donors or from cord blood, using FicollPAQUE gradients. CD4^+ T cells were magnetically selected (autoMACS, Miltenyi). Adult memory CD4^+ T cell subsets were further purified as CD3^+CD4^+CD25^− CD45RO^+CCR6^+CD161^+ by cell sorting on a FACSAria (BD). Naive CD4^+ T cells were isolated from cord blood as CD3^+CD4^+CD45RA^+HLA-DR^−CD25^−DAPI^−. Memory cells were activated with anti-CD3/CD28 coated beads (1 bead/cell) in T cell media (see above) supplemented with 100 U/mL IL-2 (Peprotech), 10 ng/mL IL-1b and 10 ng/mL IL-23 (eBioscience). Naive cells were activated with anti-CD3/CD28 beads and cultured with the same cytokines, and TGF-b (0, 0.1, 1, or, 10 ng/mL) (Peprotech), in XVIVO-20 (Lonza) media. […] Naive CD4^+ T cells, cultured in XVIVO-20 media supplemented 100 U/mL IL-2 (Peprotech), were transduced with RORad-IRES-GFP or RORγt-IRES-GFP on day 1 and analyzed on day 6. GFP expressing cells were gated for analysis. DMSO or compounds were added 6-8 hours after the viral transduction.
(§4) Blood samples were obtained from the New York Blood Center. Mononuclear cells were prepared from buffy coats from healthy adult donors or from cord blood, using FicollPAQUE gradients. CD4^+ T cells were magnetically selected (autoMACS, Miltenyi). Adult memory CD4+ T cell subsets were further purified as CD3^+CD4^+CD25^−CD45RO^+CCR6^+CD161^+ by cell sorting on a FACSAria (BD). Naive CD4^+ T cells were isolated from cord blood as CD3^+CD4^+CD45RA^+HLA^−DR^−CD25^−DAPI^−. Memory cells were activated with anti-CD3/CD28 coated beads (1 bead/cell) in T cell media (see above) supplemented with 100 U/mL IL-2 (Peprotech), 10 ng/mL IL-1β and 10 ng/mL IL-23 (eBioscience). Naive cells were activated with anti-CD3/CD28 beads and cultured with the same cytokines, and TGF-β (0, 0.1, 1, or, 10 ng/mL) (Peprotech), in XVIVO-20 (Lonza) media. […] Naive CD4+ T cells, cultured in XVIVO-20 media supplemented with 100 U/mL IL-2 (Peprotech), were transduced with RORαd-IRES-GFP or RORγt-IRES-GFP on day 1 and analyzed on day 6. GFP expressing cells were gated for analysis. DMSO or compounds were added 6-8 hours after the viral transduction.

human RORγt = molecular target: T2, human RORγt (Homo sapiens, UniProt P51449); assay: IL-17a induction in human CD4+ T cells transduced with RORαd, RORβ or RORγt; assay type: cell-based; details: 10 μM, FIG. 3b
T2 construct: expressed in transfected cells; host or cells: human CD4+ T cells (cord blood or adult blood), lentiviral HDV-IRES-GFP/HSA vectors
T2 sequence (P51449 1-497 isoform P51449-2): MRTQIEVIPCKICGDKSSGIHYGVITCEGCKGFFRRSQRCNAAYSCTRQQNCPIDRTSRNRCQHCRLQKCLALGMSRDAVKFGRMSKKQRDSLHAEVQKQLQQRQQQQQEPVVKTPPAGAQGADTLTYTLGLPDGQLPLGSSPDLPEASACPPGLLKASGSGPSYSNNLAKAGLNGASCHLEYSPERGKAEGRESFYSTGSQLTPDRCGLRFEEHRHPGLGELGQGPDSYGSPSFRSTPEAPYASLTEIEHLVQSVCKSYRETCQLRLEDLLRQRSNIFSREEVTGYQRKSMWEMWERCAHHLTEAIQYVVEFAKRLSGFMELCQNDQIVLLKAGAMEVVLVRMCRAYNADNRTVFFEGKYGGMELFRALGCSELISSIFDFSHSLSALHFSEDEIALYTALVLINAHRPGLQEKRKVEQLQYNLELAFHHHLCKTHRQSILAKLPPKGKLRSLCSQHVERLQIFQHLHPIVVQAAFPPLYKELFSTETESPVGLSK
Method: as §2, §3
Blood samples were obtained from the New York Blood Center. Mononuclear cells were prepared from buffy coats from healthy adult donors or from cord blood, using FicollPAQUE gradients. CD4^+ T cells were magnetically selected (autoMACS, Miltenyi). Adult memory CD4+ T cell subsets were further purified as CD3^+CD4^+CD25^−CD45RO^+CCR6^+CD161^+ by cell sorting on a FACSAria (BD). […] Naive CD4+ T cells, cultured in XVIVO-20 media supplemented with 100 U/mL IL-2 (Peprotech), were transduced with RORαd-IRES-GFP or RORγt-IRES-GFP on day 1 and analyzed on day 6. […]

[3] = Precipitation noted in Table 2; assay type: physicochemical
[4] = tested on: IL-17a production in human CD4+ T cells; assay: Human cord blood CD4+ T cells expressing murine ATP1a1, Th17 conditions; assay type: cell-based; details: murine Na+/K+-ATPase α1 expressed, 10 μM
Method: as §4

SMILES | effect on RORγ transcriptional activity (mouse RORγt) | cytotoxic concentration on human cells [1] [µM] | Na+/K+-ATPase inhibition / binding affinity (Na+/K+-ATPase) | IC50 (mouse RORγt) [µM] | IFN-γ expression in T cells ([2]; FIG. 3c) | Th17 cell differentiation ([2]; FIG. 3c) | inhibition at 10 µM ([2]; Homo sapiens, CD4+ T, at 10 uM) [%] | RORγt-mediated IL-17a induction (versus RORαd) (human RORγt) | Note [3] | IL-17a expression [4]
CC1OC(OC2C(O)CC(OC3C(O)CC(OC4CCC5(C)C(CCC6C5CC(O)C5(C)C(C7COC(=O)C7)CCC65O)C4)OC3C)OC2C)CC(O)C1O (centres unmarked) [20,22-Dihydrodigoxin] | inhibited | 2.5 | much lower binding affinity than that of digoxin |  |  |  |  |  |  | 
CC1OC(OC2C(O)CC(OC3C(O)CC(OC4CCC5(C)C(CCC6C5CC(O)C5(C)C(C7=CC(=O)OC7=Cc7ccccc7O)CCC65O)C4)OC3C)OC2C)CC(O)C1O (centres unmarked) [Compound 15, Digoxin-21-salicylidene] |  |  |  | < 1 | reciprocal increases | blocked | ~70 | selectively suppressed | precipitate at high | 
CC(=O)O[C@H]1C[C@H](O[C@H]2[C@@H](O)C[C@H](O[C@H]3[C@@H](O)C[C@H](O[C@H]4CC[C@@]5(C)[C@H](CC[C@@H]6[C@@H]5C[C@@H](O)[C@]5(C)[C@@H](C7=CC(=O)OC7)CC[C@]65O)C4)O[C@@H]3C)O[C@@H]2C)O[C@H](C)[C@H]1O[C@@H]1O[C@H](CO)[C@@H](O)[C@H](O)[C@H]1O [lanatoside C, Lanatoside C] | no significant effect |  |  |  |  |  |  |  |  | no effect
